Data on two compounds can be found in ChEMBL document CHEMBL1629546 (Antimicrob Agents Chemother, 2008).

Converted amounts (≈) assume the structure as drawn. The source made the active and inactive calls. The calls are words filed in the database; no cut-off is given here.

Data set [1] deals with Bacillus anthracis. The note with it: in vivo.
In data set [2] the test system is Bacillus anthracis. Briefly: Antimicrobial activity against Bacillus anthracis infected in in vitro hollow fiber PK/PD model assessed as prevention of bacterial regrowth at 800 mg administered once every 24 hrs. The data set is classed as functional, organism-based.
Data set [3] relates to Bacillus anthracis. The note with it: in vivo. This is another data set of the same source.
Data set [4] relates to Bacillus anthracis. The note with it: in vivo. This is another data set of the same source.
Data set [5] has as its system Bacillus anthracis. Briefly: Antimicrobial activity against Bacillus anthracis infected in in vitro hollow fiber PK/PD model assessed as bacterial regrowth at 500 mg administered once every 24 hrs. In kind it is functional, organism-based.
In data set [6] the test system is Bacillus anthracis. Briefly: Antimicrobial activity against Bacillus anthracis infected in in vitro hollow fiber PK/PD model assessed as cell killing at 800 mg administered as 4 divided doses every 6 hrs. The data set is classed as functional, organism-based.
Data set [7] relates to Bacillus anthracis. Briefly: Antimicrobial activity against Bacillus anthracis infected in in vitro hollow fiber PK/PD model assessed as cell killing at 400 mg administered once every 24 hrs. The data set is classed as functional, organism-based.
Data set [8] has as its system Bacillus anthracis. The note with it: in vivo. The source holds these as a separate data set.
For data set [9], the system named is Bacillus anthracis. Briefly: Antimicrobial activity against Bacillus anthracis infected in in vitro hollow fiber PK/PD model assessed as cell killing at 300 mg administered once every 24 hrs. In kind it is functional, organism-based.
For data set [10], the system named is Bacillus anthracis. The note with it: in vivo, 24 h.
Data set [11] concerns Bacillus anthracis. The note with it: in vivo, 24 h. The source holds these as a separate data set.
For data set [12], the system named is Bacillus anthracis. Briefly: Antimicrobial activity against Bacillus anthracis infected in in vitro hollow fiber PK/PD model assessed as reduction in bacterial burden at 700 mg administered once every 24 hrs. In kind it is functional, organism-based.
Data set [13] relates to Bacillus anthracis. Briefly: Antimicrobial activity against Bacillus anthracis infected in in vitro hollow fiber PK/PD model assessed as bacterial regrowth at 100 mg administered once every 24 hrs. The data set is classed as functional, organism-based.
Data set [14] has as its system Bacillus anthracis. Briefly: Antimicrobial activity against wild-type Bacillus anthracis. In kind it is functional.
Data set [15] relates to Bacillus anthracis. Briefly: Antimicrobial activity against Bacillus anthracis infected in in vitro hollow fiber PK/PD model assessed as bacterial killing at 500 mg administered once every 24 hrs for 15 days. In kind it is functional, organism-based.
Data set [16] has as its system Bacillus anthracis. Briefly: Antimicrobial activity against Bacillus anthracis infected in in vitro hollow fiber PK/PD model assessed as bacterial killing at 600 mg administered once every 24 hrs for 15 days. The data set is classed as functional, organism-based.
In data set [17] the test system is Bacillus anthracis. The note with it: in vivo. This is another data set of the same source.
Data set [18] concerns Bacillus anthracis. The note with it: in vivo, 24 h. This is another data set of the same source.
In data set [19] the test system is Bacillus anthracis. Briefly: Antimicrobial activity against Bacillus anthracis infected in in vitro hollow fiber PK/PD model assessed as bacterial regrowth at 400 mg administered once every 24 hrs. The data set is classed as functional, organism-based.
The subject of data set [20] is Bacillus anthracis. Briefly: Antimicrobial activity against Bacillus anthracis infected in in vitro hollow fiber PK/PD model assessed as bacterial regrowth at 600 mg administered once every 24 hrs. In kind it is functional, organism-based.
In data set [21] the test system is Bacillus anthracis. Briefly: Antimicrobial activity against Bacillus anthracis infected in in vitro hollow fiber PK/PD model assessed as cell killing at 800 mg administered as 2 divided doses every 12 hrs. In kind it is functional, organism-based.
Data set [22] concerns Bacillus anthracis. The note with it: in vivo, 24 h. This is another data set of the same source.
Data set [23] has as its system Bacillus anthracis. The note with it: in vivo, 24 h. This is another data set of the same source.
For data set [24], the system named is Bacillus anthracis. Briefly: Antimicrobial activity against Bacillus anthracis infected in in vitro hollow fiber PK/PD model assessed as bacterial killing at 800 mg administered once every 24 hrs. The data set is classed as functional, organism-based.
Data set [25] relates to Bacillus anthracis. The note with it: in vivo. The source holds these as a separate data set.
For data set [26], the system named is Bacillus anthracis. The note with it: in vivo, 24 h. This is another data set of the same source.
Data set [27] relates to Bacillus anthracis. The note with it: in vivo, 24 h. The source holds these as a separate data set.
For data set [28], the system named is Bacillus anthracis. Briefly: Antimicrobial activity against Bacillus anthracis infected in in vitro hollow fiber PK/PD model assessed as bacterial regrowth at 300 mg administered once every 24 hrs. The data set is classed as functional, organism-based.
Data set [29] concerns Bacillus anthracis. Briefly: Antimicrobial activity against Bacillus anthracis infected in in vitro hollow fiber PK/PD model assessed as cell killing at 200 mg administered once every 24 hrs. The data set is classed as functional, organism-based.
Data set [30] deals with Bacillus anthracis. Briefly: Antimicrobial activity against Bacillus anthracis infected in in vitro hollow fiber PK/PD model assessed as prevention of bacterial regrowth at 700 mg administered once every 24 hrs. In kind it is functional, organism-based.
The subject of data set [31] is Bacillus anthracis. The note with it: in vivo, 24 h. This is another data set of the same source.
In data set [32] the test system is Bacillus anthracis. Briefly: Antimicrobial activity against Bacillus anthracis infected in in vitro hollow fiber PK/PD model assessed as cell killing at 800 mg administered once every 24 hrs. The data set is classed as functional, organism-based.
For data set [33], the system named is Bacillus anthracis. The note with it: in vivo. The source holds these as a separate data set.
For data set [34], the system named is Bacillus anthracis. The note with it: in vivo, 24 h. The source holds these as a separate data set.
The subject of data set [35] is Bacillus anthracis. The note with it: in vivo. This is another data set of the same source.
The test system of data set [36] is Bacillus anthracis. The note with it: in vivo, 24 h. The source holds these as a separate data set.
Data set [37] has as its system Bacillus anthracis. The note with it: in vivo. This is another data set of the same source.
The subject of data set [38] is Bacillus anthracis. Briefly: Antimicrobial activity against Bacillus anthracis infected in in vitro hollow fiber PK/PD model assessed as bacterial regrowth at 200 mg administered once every 24 hrs. In kind it is functional, organism-based.
Data set [39] concerns Bacillus anthracis. The note with it: in vivo, 24 h. This is another data set of the same source.
Data set [40] relates to Bacillus anthracis. The note with it: in vivo, 24 h. The source holds these as a separate data set.
The test system of data set [41] is Bacillus anthracis. The note with it: in vivo. This is another data set of the same source.
The subject of data set [42] is Bacillus anthracis. The note with it: in vivo, 24 h. The source holds these as a separate data set.

In data set [1], `O=C(O)c1cn(C2CC2)c2cc(N3CCNCC3)c(F)cc2c1=O` [CIPROFLOXACIN] displayed a fAUC of 22.356 mg·h/L.

Turning to `CC(=O)NC[C@H]1CN(c2ccc(N3CCOCC3)c(F)c2)C(=O)O1` [LINEZOLID], the result in data set [2], in data set [5], in [6], in data set [7], in [9] and in data set [12] was Active. In addition, the result in data set [13], in [15], in data set [16], in [19], in data set [20] and in data set [21] was Active. Besides, the outcome in data set [24], in data set [28], in data set [29], in data set [30], in data set [32] and in [38] was Active. The fAUC in data set [3] is 91.284 mg·h/L; in [4], 36.244 mg·h/L; in [8], 74.371 mg·h/L; in data set [10], 90.106 mg·h/L; in [11] it was 71.422 mg·h/L; in data set [17] it was 115.702 mg·h/L. Further, the fAUC worked out at 45.553 mg·h/L in [18]; 91.106 mg·h/L in data set [22]; 11.249 mg·h/L in data set [23]; 91.216 mg·h/L in [25]; 56.283 mg·h/L in data set [26]; 33.746 mg·h/L in data set [27]. Also, the fAUC in data set [1] worked out at 90.081 mg·h/L; in data set [31], 56.283 mg·h/L; in data set [33], 56.258 mg·h/L; in data set [34], 78.508 mg·h/L; in data set [35], 56.245 mg·h/L; in data set [36] it was 91.106 mg·h/L. Further, the fAUC in data set [37] turned out to be 71.3 mg·h/L; in [39], 22.498 mg·h/L; in data set [40], 71.422 mg·h/L; in data set [41], 71.54 mg·h/L; in data set [42] it was 78.508 mg·h/L. This compound also yielded an MIC in data set [14] of 3 µg/mL (≈ 8.89 µM).

By MIC is commonly meant the least concentration at which growth counts as inhibited.
